Assay [1] concerns the target T1, Neutrophil elastase (Homo sapiens) (UniProt P08246).
T1 sequence (whole entry): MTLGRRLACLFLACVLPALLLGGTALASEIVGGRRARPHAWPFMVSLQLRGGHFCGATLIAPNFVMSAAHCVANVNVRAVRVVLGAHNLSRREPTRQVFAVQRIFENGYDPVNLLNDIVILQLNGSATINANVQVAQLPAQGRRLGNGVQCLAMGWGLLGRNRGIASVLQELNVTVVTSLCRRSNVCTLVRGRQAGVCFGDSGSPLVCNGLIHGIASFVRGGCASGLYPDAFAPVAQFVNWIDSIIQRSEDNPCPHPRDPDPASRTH
Description: Inhibition of human leukocyte elastase (HLE) expressed as K inactivation rate

The target in assay [2] is T1, Neutrophil elastase (Homo sapiens). The source holds these as a separate data set.
Description: Inhibition of human leukocyte elastase (HLE) expressed as K reactivation rate
In the next assay the target is T2, Neutrophil elastase (Homo sapiens, UniProt P08246).
T2 sequence (P08246 whole entry): T1 sequence (whole entry)
Description: Potency of Inhibition of human leukocyte elastase (HLE) expressed as apparent binding constant.

In assay [1], `CCOc1cccc2c1C(=O)N(CSc1nnnn1-c1ccccc1)S2(=O)=O` returned a K inact of 45300 M⁻¹ s⁻¹. Besides, the Kreact in assay [2] came to 0.00014 s⁻¹.

As for `Cn1cnnc1SCN1C(=O)c2ccccc2S1(=O)=O`, the K inact in assay [1] came to 190 M⁻¹ s⁻¹. This compound also had a Kreact in assay [2] of 4.7e-05 s⁻¹. On the same counts, the results for `CC(C)Oc1cccc2c1C(=O)N(CSc1nnnn1-c1ccccc1)S2(=O)=O` are 8900 M⁻¹ s⁻¹ and 0.00016 s⁻¹.

As for `CC(C)(C)c1cccc2c1C(=O)N(CSc1nnnn1-c1ccccc1)S2(=O)=O`, the Ki on Neutrophil elastase was 2000 nM. `O=C1c2c(-c3ccccc3)cccc2S(=O)(=O)N1CSc1nnnn1-c1ccccc1` displayed a K inact in assay [1] of 5800 M⁻¹ s⁻¹. The Kreact in assay [2] amounted to 0.0005 s⁻¹. On the same counts, the results for `CC(=O)OCN1C(=O)c2ccccc2S1(=O)=O` are 630 M⁻¹ s⁻¹ and 0.0001 s⁻¹. On the same counts, the results for `O=C1c2ccccc2S(=O)(=O)N1CSc1nnnn1C1CCCCC1` are 2500 M⁻¹ s⁻¹ and 0.0001 s⁻¹. On the same counts, the results for `Cn1nnnc1SCN1C(=O)c2ccccc2S1(=O)=O` are 1000 M⁻¹ s⁻¹ and 0.0001 s⁻¹. Turning to `O=C1c2c(Br)cccc2S(=O)(=O)N1CSc1nnnn1-c1ccccc1`, the Kreact in assay [2] amounted to 0.00036 s⁻¹.

Source of the values: ChEMBL document CHEMBL1151501, “A benzisothiazolone class of potent, selective mechanism-based inhibitors of human leukocyte elastase” (Bioorg Med Chem Lett, 1994).
